Test results taken from PubChem BioAssay (NCI).
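Five concentrations, 48 hours, 96-well plates. GI50 = concentration required for 50% inhibition of growth. Definition used: TGI = concentration required for complete inhibition of growth.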

Experiments:
Test in all cases: growth of human tumour cells (NCI), 48 h
[1] = tested on: RPMI-8226 leukemia
[2] = tested on: UACC-257 melanoma
[3] = tested on: CCRF-CEM leukemia
[4] = tested on: SNB-19 CNS
[5] = tested on: SF-295 CNS
[6] = tested on: HOP-62 NSCLC
[7] = tested on: SW-620 colon
[8] = tested on: OVCAR-3 ovarian
[9] = tested on: HT29 colon
[10] = tested on: HCT-116 colon

SMILES | TGI [1] | TGI [2] | TGI [3] | TGI [4] | TGI [5] | TGI [6] | TGI [7] | TGI [8] | TGI [9] | GI50 [2] | GI50 [10] | TGI [10] | GI50 [3] | GI50 [4] | GI50 [5] | GI50 [6] | GI50 [7] | GI50 [8] | GI50 [9]
COc1ccc2c(c1)CC[C@@H]1[C@@H]2CC[C@]2(C)C(=O)/C(=C/c3ccc(O)c(OC)c3)C[C@@H]12 | > 100 µM | > 100 µM | > 100 µM | > 100 µM | > 100 µM | > 100 µM | > 100 µM | > 100 µM | > 100 µM | – | – | – | – | – | – | – | – | – | –
COc1ccc2nc3ccccc3c(NCc3ccc(C)cc3)c2c1 | – | 5 µM | 11.4 µM | 11.4 µM | 2.74 µM | 3.7 µM | 4.24 µM | 4.36 µM | 7.16 µM | 2.12 µM | 0.848 µM | 6.24 µM | 2.37 µM | 2.97 µM | 1.34 µM | 1.78 µM | 1.57 µM | 2 µM | 1.43 µM
C[C@]12CCC(=O)C=C1CC[C@@H]1[C@@H]2[C@@H](O)C[C@@]2(C)[C@H]1CC[C@]2(O)C(=O)COC(=O)C1CCCC1 | > 100 µM | > 100 µM | > 100 µM | > 100 µM | > 100 µM | > 100 µM | > 100 µM | > 100 µM | > 100 µM | – | – | > 100 µM | – | – | – | – | – | – | –
C[N+](C)(CCO)CCN1c2ccccc2Sc2ccccc21 | > 10 µM | – | > 10 µM | > 10 µM | > 10 µM | > 10 µM | > 10 µM | > 10 µM | > 10 µM | – | – | > 10 µM | – | – | – | – | – | – | –
Cc1ccc(SSCCCCCS(=O)O)cc1 | 71.4 µM | > 100 µM | > 100 µM | > 100 µM | – | 56.4 µM | – | 74.7 µM | > 100 µM | – | – | 28.4 µM | – | – | – | – | – | – | –
Nc1nc(=O)n(CC(O)CO)s1 (stereo unspecified) | > 100 µM | > 100 µM | > 100 µM | > 100 µM | > 100 µM | > 100 µM | > 100 µM | > 100 µM | > 100 µM | – | – | > 100 µM | – | – | – | – | – | – | –
O=C(COc1ccc(Cl)cc1Cl)N/N=C/C=C/c1ccc([N+](=O)[O-])o1 | 9.22 µM | – | 15.2 µM | 41.4 µM | > 100 µM | 54.4 µM | > 100 µM | > 100 µM | > 100 µM | – | – | – | – | – | – | – | – | – | –
Cn1c(=O)c2c(nc(NCCNc3nc4c(c(=O)n(C)c(=O)n4C)n3C)n2C)n(C)c1=O | – | > 100 µM | > 100 µM | > 100 µM | > 100 µM | > 100 µM | > 100 µM | > 100 µM | > 100 µM | – | – | > 100 µM | – | – | – | – | – | – | –
O=C(NNC(=O)c1nsc2ccccc12)c1ccc(Cl)cc1 | 50.2 µM | 48.2 µM | 38.1 µM | 42.3 µM | – | 33.7 µM | > 100 µM | 36.6 µM | 41.8 µM | – | – | 39.2 µM | – | – | – | – | – | – | –
COc1ccc(C2C(C=O)C(N3CCN(C)CC3)=Nc3nc4ccccc4n32)cc1 (stereo unspecified) | 17.3 µM | 41 µM | 17.8 µM | 41 µM | 50.9 µM | 28.7 µM | 65.9 µM | 40.5 µM | 36.8 µM | – | – | 29.8 µM | – | – | – | – | – | – | –
Fc1c(F)c(C(F)(F)F)c(F)c(F)c1N/N=C/c1cn(Cc2ccccc2)c2ccccc12 | 62.7 µM | 54 µM | 48.4 µM | 76.8 µM | 36.2 µM | 22.4 µM | > 100 µM | 36.6 µM | 49.3 µM | – | – | 89.5 µM | – | – | – | – | – | – | –
N#C[S-].[Ce+3].c1cnc2c(c1)ccc1cccnc12.c1cnc2c(c1)ccc1cccnc12.c1cnc2c(c1)ccc1cccnc12 | > 100 µM | 18.9 µM | – | 22.5 µM | 1.45 µM | 35.7 µM | 46.8 µM | 14.9 µM | 23.9 µM | – | – | 5.5 µM | – | – | – | – | – | – | –
O=S(O)c1cc(Cl)cc(Cl)c1OCc1ccccc1 | – | > 100 µM | > 100 µM | > 100 µM | – | > 100 µM | – | > 100 µM | > 100 µM | – | – | > 100 µM | – | – | – | – | – | – | –
CC(=O)C1=C(O)CCC1=O | > 100 µM | > 100 µM | > 100 µM | > 100 µM | > 100 µM | > 100 µM | > 100 µM | > 100 µM | > 100 µM | – | – | > 100 µM | – | – | – | – | – | – | –
NC(CC(=O)O)(Cc1ccccc1)C(=O)O (stereo unspecified) | > 100 µM | > 100 µM | > 100 µM | > 100 µM | > 100 µM | > 100 µM | > 100 µM | > 100 µM | > 100 µM | – | – | > 100 µM | – | – | – | – | – | – | –
CNC(=O)Nc1ccccc1 | > 100 µM | > 100 µM | > 100 µM | > 100 µM | > 100 µM | > 100 µM | > 100 µM | > 100 µM | > 100 µM | – | – | > 100 µM | – | – | – | – | – | – | –
